The values below come from the NIST ThermoML archive (doi:10.1016/j.jct.2004.09.021).

For data set [1] the following is noted: 101 kPa, Liquid.
Data set [2] is described as follows: refractive index (Na D-line) (dimensionless). Conditions: 101.33 kPa, Liquid.

Numbers after ± are expanded uncertainties.

For orientation: mass density means mass per unit of volume. The term viscosity denotes the resistance of a fluid to flow. One may read the refractive index as a measure of how strongly the sample bends light.

`CCCCCCCCC` [nonane]: the results for the mass density in data set [1] (293.15 K), in data set [1] (298.15 K) and in data set [1] (303.15 K) were 717.59 ± 2.9 kg/m3, 713.71 ± 3 kg/m3 and 709.81 ± 3 kg/m3, respectively. Further, the viscosity in data set [1] (293.15 K) stood at 0.7136 ± 0.013 mPa·s; in data set [1] (298.15 K) it was 0.6715 ± 0.012 mPa·s; in data set [1] (303.15 K), 0.6307 ± 0.011 mPa·s. Besides, the refractive index is recorded as 1.404 ± 0.0009 in data set [2] (293.15 K), 1.4027 ± 0.0009 in data set [2] (298.15 K) and 1.4002 ± 0.001 in data set [2] (303.15 K).

`CCCCCCCCCCCC` [dodecane]: the mass density was found to be 748.78 ± 0.77 kg/m3 in data set [1] (293.15 K), 745.14 ± 0.77 kg/m3 in data set [1] (298.15 K) and 741.52 ± 0.78 kg/m3 in data set [1] (303.15 K). For the same compound, the values for the viscosity in data set [1] (293.15 K), in data set [1] (298.15 K) and in data set [1] (303.15 K) were 1.487 ± 0.024 mPa·s, 1.373 ± 0.023 mPa·s and 1.25 ± 0.021 mPa·s, respectively. Moreover, the refractive index in data set [2] (293.15 K) worked out at 1.421 ± 0.0011; in data set [2] (298.15 K), 1.4172 ± 0.0011; in data set [2] (303.15 K) it was 1.4135 ± 0.0011.

On to `CCCCCC` [hexane], for which the mass density in data set [1] (293.15 K) is listed as 659.5 ± 0.91 kg/m3; in data set [1] (298.15 K) it was 654.96 ± 0.92 kg/m3; in data set [1] (303.15 K) it was 650.42 ± 0.93 kg/m3. Also, the viscosity in data set [1] (293.15 K) came out at 0.3114 ± 0.0066 mPa·s; in data set [1] (298.15 K) it was 0.2974 ± 0.0064 mPa·s; in data set [1] (303.15 K) it was 0.2838 ± 0.0062 mPa·s. For the same compound, the refractive index was 1.3759 ± 0.001 in data set [2] (293.15 K), 1.3732 ± 0.001 in data set [2] (298.15 K) and 1.3709 ± 0.0009 in data set [2] (303.15 K).

For the compound `CCCCCCC` [heptane], the values for the mass density in data set [1] (293.15 K), in data set [1] (298.15 K) and in data set [1] (303.15 K) were 683.96 ± 0.87 kg/m3, 679.77 ± 0.88 kg/m3 and 675.5 ± 0.88 kg/m3, respectively. Also, the viscosity in data set [1] (293.15 K) was 0.4127 ± 0.0081 mPa·s; in data set [1] (298.15 K) it was 0.3909 ± 0.0078 mPa·s; in data set [1] (303.15 K), 0.3702 ± 0.0075 mPa·s. For the same compound, the results for the refractive index in data set [2] (293.15 K), in data set [2] (298.15 K) and in data set [2] (303.15 K) were 1.3872 ± 0.0009, 1.3855 ± 0.0009 and 1.3827 ± 0.001, respectively.

Turning to `CCCCCCCC` [octane], the mass density in data set [1] (293.15 K) is given as 702.61 ± 0.84 kg/m3; in data set [1] (298.15 K), 698.57 ± 0.85 kg/m3; in data set [1] (303.15 K), 694.56 ± 0.85 kg/m3. The viscosity is on record as 0.5464 ± 0.01 mPa·s in data set [1] (293.15 K), 0.5123 ± 0.0096 mPa·s in data set [1] (298.15 K) and 0.483 ± 0.0091 mPa·s in data set [1] (303.15 K). The refractive index in data set [2] (293.15 K) was 1.3965 ± 0.0009; in data set [2] (298.15 K), 1.3947 ± 0.0009; in data set [2] (303.15 K) it was 1.3926 ± 0.0009.
